Data reported in article PMC8536124 (International Journal of Molecular Sciences, 2021).
Read-outs that look alike come from different tables or passages of the source.

Columns and labels:
[1] = test system: HL-60(TB); assay: NCI-60 screening (SRB); format: cell-based, human; conditions: HL-60(TB), five-dose
[2] = test system: K-562; assay: NCI-60 screening (SRB); format: cell-based, human
[3] = test system: MOLT-4; assay: NCI-60 screening (SRB); format: cell-based, human; conditions: five-dose
[4] = test system: RPMI-8226; assay: NCI-60 screening (SRB); format: cell-based, human; conditions: five-dose
[5] = test system: NCI-H226; assay: NCI-60 screening (SRB); format: cell-based, human; conditions: five-dose
[6] = test system: NCI-H23; assay: NCI-60 screening (SRB); format: cell-based, human; conditions: five-dose
[7] = test system: NCI-H322M; assay: NCI-60 screening (SRB); format: cell-based, human; conditions: five-dose
[8] = test system: NCI-H460; assay: NCI-60 screening (SRB); format: cell-based, human; conditions: five-dose
[9] = test system: HCT-116; assay: NCI-60 screening (SRB); format: cell-based, human; conditions: five-dose
[10] = test system: HT29; assay: NCI-60 screening (SRB); format: cell-based, human
[11] = test system: CNS cancer; assay: cells; format: cell-based
Source text: (§1) The experimental data allow the assessment of the cytostatic effect, indicated by growth inhibition values ranging between 0 and 100, as well as of the cytotoxic effect, indicated by negative values.
(§2) The mean GI50 (molar concentration of the compound that inhibits 50% net cell growth), TGI (molar concentration of the compound leading to the total inhibition), and LC50 (molar concentration of the compound leading to 50% net cell death (presented in negative logarithm)) values across each cell line are shown in Table 2.
(§3) The selectivity index (SI), calculated as the ratio between the full panel MG_MID60 (μM) of compounds 4, 6, and 9 by their respective subpanels MG_MID of the cell line (μM), was introduced as a quantification tool for the selectivity of each compound in terms of anticancer effect (Table 3).
(§4) Primary anticancer assays were performed according to the NCI protocol, as described elsewhere (see e.g., http://dtp.nci.nih.gov accessed on 1 November 2018). The compounds were added at a single concentration, and the cell cultures were incubated for 48 h. The end point determinations were made with a protein-binding dye, sulforhodamine B (SRB). […] The percentage of growth was evaluated spectrophotometrically versus controls not treated with test agents after 48 h exposure and using SRB protein assay to estimate cell viability or growth. Three antitumor activity dose-response parameters were calculated for each cell line. Furthermore, mean graph midpoints (MG_MID) were calculated for each of the parameters, giving an average activity parameter over all cell lines for the tested compound. For the MG_MID calculation, insensitive cell lines were included with the highest concentration tested.

[12] = test system: MDA-MB-435; assay: NCI-60 screening (SRB); format: cell-based, human; conditions: five-dose
[13] = test system: SK-MEL-2; assay: NCI-60 screening (SRB); format: cell-based, human; conditions: five-dose
[14] = test system: SK-MEL-28; assay: NCI-60 screening (SRB); format: cell-based, human; conditions: five-dose
[15] = test system: SK-MEL-5; assay: NCI-60 screening (SRB); format: cell-based, human
[16] = test system: OVCAR-4; assay: NCI-60 screening (SRB); format: cell-based, human; conditions: five-dose
[17] = test system: OVCAR-8; assay: NCI-60 screening (SRB); format: cell-based, human; conditions: five-dose
[18] = test system: 786-0; assay: NCI-60 screening (SRB); format: cell-based, human; conditions: five-dose
[19] = test system: CAKI-1; assay: NCI-60 screening (SRB); format: cell-based, human; conditions: CAKI-1, five-dose
[20] = test system: RXF 393; assay: NCI-60 screening (SRB); format: cell-based, human; conditions: five-dose
[21] = test system: UO-31; assay: NCI-60 screening (SRB); format: cell-based, human; conditions: five-dose
[22] = test system: PC-3; assay: NCI-60 screening (SRB); format: cell-based, human; conditions: five-dose
[23] = test system: DU-145; assay: NCI-60 screening (SRB); format: cell-based, human; conditions: five-dose
[24] = test system: MCF7; assay: NCI-60 screening (SRB); format: cell-based, human; conditions: five-dose
[25] = test system: BT-549; assay: NCI-60 screening (SRB); format: cell-based, human; conditions: five-dose
[26] = test system: NCI-60 cancer cell line panel; assay: NCI-60 screening (SRB), full panel; format: cell-based, human; conditions: for activity at 10 µM: 60 cell lines, 48 h
Source text: as §1, §2, §3, §4

[27] = Homo sapiens, read-out: LC50 (the source's name)

Structure (SMILES): CCN1CCN(C(=O)[C@]23CCC(C)(C)C[C@H]2C2=CC[C@@H]4[C@@]5(C)C/C(=C/c6cccnc6)C(=O)C(C)(C)[C@@H]5CC[C@@]4(C)[C@]2(C)CC3)CC1 [Compound 6]
- TGI [1]: 9.02 µM
- GI50 ([1]; Homo sapiens): 2.1 µM
- CC50 [1, 27]: > 100 µM
- GI50 ([2]; Homo sapiens, K562, five-dose): 0.443 µM
- CC50 ([2]; Homo sapiens, K562, five-dose, read-out: LC50 (the source's name)): > 100 µM
- TGI ([2]; five-dose): 3.34 µM
- GI50 ([3]; Homo sapiens): 1.43 µM
- CC50 [3, 27]: > 100 µM
- TGI [3]: >100 µM
- GI50 ([4]; Homo sapiens): 1.03 µM
- CC50 [4, 27]: > 100 µM
- TGI [4]: 5.20 µM
- GI50 ([5]; Homo sapiens): 1.76 µM
- TGI [5]: 3.80 µM
- GI50 ([6]; Homo sapiens): 2.1 µM
- CC50 [6, 27]: 27.8 µM
- TGI [6]: 5.85 µM
- GI50 ([7]; Homo sapiens): 2.87 µM
- CC50 [7, 27]: 33.9 µM
- TGI [7]: 9.25 µM
- GI50 ([8]; Homo sapiens): 1.39 µM
- CC50 [8, 27]: 6.2 µM
- TGI [8]: 2.93 µM
- GI50 ([9]; Homo sapiens): 1.01 µM
- CC50 [9, 27]: 4.89 µM
- TGI [9]: 2.22 µM
- GI50 ([10]; Homo sapiens, HT-29, five-dose): 1.71 µM
- CC50 ([10]; Homo sapiens, HT-29, five-dose, read-out: LC50 (the source's name)): 44.5 µM
- TGI ([10]; five-dose): 4.67 µM
- TGI MG_MID ([11]; CNS cancer subpanel, five-dose): 3.50 µM
- SI (TGI) ([11]; CNS cancer, MG_MID60/subpanel MG_MID): 1.80
- GI50 ([11]; Homo sapiens, CNS cancer subpanel, five-dose, read-out: GI50 MG_MID): 1.63 µM
- CC50 ([11]; Homo sapiens, CNS cancer subpanel, five-dose, read-out: LC50 MG_MID): 22.1 µM
- GI50 ([12]; Homo sapiens): 1.48 µM
- CC50 [12, 27]: 6.52 µM
- TGI [12]: 3.11 µM
- GI50 ([13]; Homo sapiens): 1.93 µM
- CC50 [13, 27]: 8.16 µM
- TGI [13]: 3.96 µM
- GI50 ([14]; Homo sapiens): 1.48 µM
- CC50 [14, 27]: 5.41 µM
- TGI [14]: 2.83 µM
- GI50 ([15]; Homo sapiens, SK-MEL-5, five-dose): 1.63 µM
- CC50 ([15]; Homo sapiens, SK-MEL-5, five-dose, read-out: LC50 (the source's name)): 5.54 µM
- Growth % ([15]; SK-MEL-5, 1 dose 10 µM): −91.03%
- TGI ([15]; SK-MEL-5, five-dose): 3.00 µM
- cell death ([15]; SK-MEL-5 melanoma, 1 dose 10 µM): 88.15%
- GI50 ([16]; Homo sapiens): 2.17 µM
- CC50 [16, 27]: 47.8 µM
- TGI [16]: 7.85 µM
- GI50 ([17]; Homo sapiens): 2.14 µM
- CC50 [17, 27]: > 100 µM
- TGI [17]: 5.54 µM
- GI50 ([18]; Homo sapiens): 1.6 µM
- CC50 [18, 27]: 5.91 µM
- TGI [18]: 3.08 µM
- TGI [19]: 11.8 µM
- GI50 ([19]; Homo sapiens): 2.08 µM
- CC50 [19, 27]: 45.3 µM
- GI50 ([20]; Homo sapiens): 1.42 µM
- CC50 [20, 27]: 5.41 µM
- TGI [20]: 2.77 µM
- GI50 ([21]; Homo sapiens): 1.35 µM
- CC50 [21, 27]: 5.32 µM
- TGI [21]: 2.67 µM
- GI50 ([22]; Homo sapiens): 1 µM
- CC50 [22, 27]: 7.78 µM
- TGI [22]: 2.79 µM
- GI50 ([23]; Homo sapiens): 1.83 µM
- CC50 [23, 27]: 8.23 µM
- TGI [23]: 3.88 µM
- GI50 ([24]; Homo sapiens): 1.4 µM
- CC50 [24, 27]: 6.71 µM
- TGI [24]: 3.07 µM
- GI50 ([25]; Homo sapiens): 1.47 µM
- CC50 [25, 27]: 5.66 µM
- TGI [25]: 2.88 µM
- Positive Cytostatic Effect (cell lines with percent growth 0 to 50 / total) ([26]; 1 dose 10 µM): 30/60
- Positive Cytotoxic Effect (cell lines with percent growth <0 / total) ([26]; 1 dose 10 µM): 4/60
- GI50 ([26]; Homo sapiens, five-dose, bound, read-out: GI50 against all human tumor cells): < 4 µM
- GI50 ([26]; Homo sapiens, mean graph midpoint, full panel, five-dose, read-out: GI50 MG_MID60): 1.52 µM
- CC50 ([26]; Homo sapiens, mean graph midpoint, full panel, five-dose, read-out: LC50 MG_MID60): 32.4 µM
- activity at 10 µM ([26]; Homo sapiens, 1 dose 10 µM, read-out: Mean Growth, %): 23.4%
- activity at 10 µM ([26]; Homo sapiens, 1 dose 10 µM, read-out: Range of Growth, %): -91 to 83.8%
- TGI MG_MID60 ([26]; mean graph midpoint, full panel, five-dose): 6.29 µM
- GI50 ([26]; mean graph midpoint, full panel, five-dose, read-out: GI50 MG_MID60): 1.53 µM
- selectivity class ([26]; toward some individual cell lines at the LC50 level): moderate selectivity (Ratios between 3 and 6 are indicators of moderate selectivity)
